inhibition, Activity and IC50 data for eight compounds are collected here from ChEMBL document CHEMBL5053515, “Insights into Ergochromes of the Plant Pathogen Claviceps purpurea” (J Nat Prod, 2021).

Activity calls are given as the source filed them. The rule behind the calls is not given here.

Assay [1] addresses DNA topoisomerase 2-alpha (Homo sapiens) (UniProt P11388). The assay can be described thus: Inhibition of human topoisomerase 2a assessed as reduction in decatenation of kinetoplast DNA at 25 uM using kinetoplast DNA as substrate incubated for 2 hrs by ethidium bromide staining based agarose gel electrophoresis method relative to control.
Assay [2] has as its system HepG2. The assay can be described thus: Cytotoxicity against human HepG2 cells assessed as reduction in cell viability at 100 uM measured at 48 hrs by resazurin reagent based assay relative to control. It counts as functional.
Assay [3] deals with HepG2. The assay can be described thus: Cytotoxicity against human HepG2 cells assessed as reduction in cell viability measured at 48 hrs by resazurin reagent based assay. The following applies: HepG2, 48 h. It counts as functional.
In a further assay the test system is CCF-STTG1. Briefly: Cytotoxicity against human CCF-STTG1 cells assessed as reduction in cell viability measured at 48 hrs by resazurin reagent based assay. It counts as functional. As to conditions: CCF-STTG1, 48 h.
Assay [4] deals with T1, DNA topoisomerase 1 (Homo sapiens) (UniProt P11387).
T1 sequence (whole entry): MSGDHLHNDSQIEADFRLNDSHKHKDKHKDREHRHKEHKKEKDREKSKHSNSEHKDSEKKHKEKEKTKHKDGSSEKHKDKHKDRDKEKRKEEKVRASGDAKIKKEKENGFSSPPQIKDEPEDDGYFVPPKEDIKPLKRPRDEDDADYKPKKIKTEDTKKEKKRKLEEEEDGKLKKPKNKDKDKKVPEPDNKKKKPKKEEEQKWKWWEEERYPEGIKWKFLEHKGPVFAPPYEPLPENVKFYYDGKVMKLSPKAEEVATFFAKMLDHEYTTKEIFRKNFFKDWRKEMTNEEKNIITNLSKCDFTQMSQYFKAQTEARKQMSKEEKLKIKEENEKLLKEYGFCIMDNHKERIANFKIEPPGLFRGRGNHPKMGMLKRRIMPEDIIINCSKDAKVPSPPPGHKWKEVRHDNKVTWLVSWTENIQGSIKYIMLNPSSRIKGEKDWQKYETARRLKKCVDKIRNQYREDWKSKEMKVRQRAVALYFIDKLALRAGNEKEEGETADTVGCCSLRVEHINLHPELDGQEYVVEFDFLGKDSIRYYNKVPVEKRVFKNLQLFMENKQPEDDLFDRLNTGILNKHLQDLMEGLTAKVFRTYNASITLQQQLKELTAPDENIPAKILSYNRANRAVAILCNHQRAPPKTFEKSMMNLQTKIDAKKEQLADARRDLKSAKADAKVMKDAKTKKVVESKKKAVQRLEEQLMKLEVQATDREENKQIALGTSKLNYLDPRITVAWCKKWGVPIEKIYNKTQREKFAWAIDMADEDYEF
The assay can be described thus: Inhibition of topoisomerase 1 (unknown origin) assessed as relaxation of supercoiled plasmid pUC18 measured after 30 mins by ethidium bromide staining based agarose gel electrophoresis.

The subject of assay [5] is HepG2. The assay can be described thus: Cytotoxicity against human HepG2 cells assessed as reduction in cell viability at up to 100 uM measured at 48 hrs by resazurin reagent based assay. It counts as functional.
Assay [6] concerns the target T1, DNA topoisomerase 1 (Homo sapiens). The assay can be described thus: Inhibition of topoisomerase 1 (unknown origin) assessed as relaxation of supercoiled plasmid pUC18 DNA at 100 uM measured after 30 mins by ethidium bromide staining based agarose gel electrophoresis relative to control.

Sequence of DNA topoisomerase 2-alpha (Homo sapiens) (P11388 whole entry): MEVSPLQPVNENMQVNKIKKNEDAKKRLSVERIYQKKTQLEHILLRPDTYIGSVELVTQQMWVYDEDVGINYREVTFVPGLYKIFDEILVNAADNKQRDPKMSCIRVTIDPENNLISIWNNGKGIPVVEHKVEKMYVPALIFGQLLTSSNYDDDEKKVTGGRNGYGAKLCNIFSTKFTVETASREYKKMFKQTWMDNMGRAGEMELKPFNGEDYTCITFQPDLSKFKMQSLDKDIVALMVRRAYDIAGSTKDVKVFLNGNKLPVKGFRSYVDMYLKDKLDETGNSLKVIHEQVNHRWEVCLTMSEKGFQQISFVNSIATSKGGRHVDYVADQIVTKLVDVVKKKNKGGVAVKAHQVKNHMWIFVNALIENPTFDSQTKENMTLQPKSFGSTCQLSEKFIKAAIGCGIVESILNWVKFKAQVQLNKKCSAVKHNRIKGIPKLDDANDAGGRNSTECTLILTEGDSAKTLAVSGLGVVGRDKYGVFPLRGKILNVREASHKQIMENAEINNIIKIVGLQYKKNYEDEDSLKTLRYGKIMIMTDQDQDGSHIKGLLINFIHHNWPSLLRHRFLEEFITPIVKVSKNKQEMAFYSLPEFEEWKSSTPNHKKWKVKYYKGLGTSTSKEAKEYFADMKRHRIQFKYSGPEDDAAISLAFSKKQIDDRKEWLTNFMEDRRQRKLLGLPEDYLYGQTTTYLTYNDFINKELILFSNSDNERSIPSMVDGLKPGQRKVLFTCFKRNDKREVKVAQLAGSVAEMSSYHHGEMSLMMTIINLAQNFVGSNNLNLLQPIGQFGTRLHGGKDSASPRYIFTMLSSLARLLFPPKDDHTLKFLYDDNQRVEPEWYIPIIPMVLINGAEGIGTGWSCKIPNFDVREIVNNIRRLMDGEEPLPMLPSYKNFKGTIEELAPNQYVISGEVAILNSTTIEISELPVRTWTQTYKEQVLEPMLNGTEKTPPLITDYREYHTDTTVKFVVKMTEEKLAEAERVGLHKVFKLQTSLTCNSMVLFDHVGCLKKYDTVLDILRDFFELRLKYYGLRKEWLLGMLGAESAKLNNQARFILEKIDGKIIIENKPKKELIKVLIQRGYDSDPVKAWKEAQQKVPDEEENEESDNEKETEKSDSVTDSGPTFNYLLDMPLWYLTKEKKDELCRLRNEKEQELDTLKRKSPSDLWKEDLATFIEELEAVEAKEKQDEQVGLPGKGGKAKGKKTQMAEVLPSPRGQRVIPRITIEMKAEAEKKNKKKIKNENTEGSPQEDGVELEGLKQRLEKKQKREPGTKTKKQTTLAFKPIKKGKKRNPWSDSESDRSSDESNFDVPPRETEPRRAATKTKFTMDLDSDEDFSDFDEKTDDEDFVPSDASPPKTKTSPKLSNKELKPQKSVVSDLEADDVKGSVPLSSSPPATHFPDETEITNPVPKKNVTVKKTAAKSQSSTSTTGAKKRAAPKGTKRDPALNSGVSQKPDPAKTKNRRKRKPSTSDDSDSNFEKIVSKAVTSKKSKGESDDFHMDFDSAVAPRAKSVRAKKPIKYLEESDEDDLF

As to `C[C@@H]1C[C@@]2(O)OC(=O)[C@@]3(Oc4ccc(-c5ccc6c(c5O)C(=O)C5(O)[C@@]7(O)C[C@@H](C)[C@H](O)[C@]5(O6)C(=O)O7)c(O)c4C(=O)C23O)[C@H]1O` (stereo partly specified), the inhibition entry in assay [1] and in assay [4] was “inactive” each time. In the assay on HepG2 [2], the Activity turned out to be 3%. For the same compound, the 50% inhibitory concentration (IC50) with HepG2 [3] turned out to be 59900 nM; with CCF-STTG1 it was 2300 nM.

Turning to `Cc1cc2c(c(O)c1C(=O)O)C(=O)c1c(O)cc(O)c(O)c1C2=O`, the result with HepG2 [5] was inactive.

With `COC(=O)[C@]12Oc3ccc(-c4ccc5c(c4O)C(=O)C4(O)C(=O)C[C@@H](C)[C@H](O)[C@@]4(C(=O)OC)O5)c(O)c3C(=O)C1(O)C(=O)C[C@@H](C)[C@@H]2O` (stereo partly specified), the IC50 in the assay on HepG2 [3] worked out at 53600 nM; in the assay with CCF-STTG1, 13400 nM.

Turning to `COC(=O)[C@]12Oc3ccc(-c4ccc(O)c5c4O[C@@]4(C(=O)OC)C(=C(O)C[C@@H](C)[C@@H]4O)C5=O)c(O)c3C(=O)C1=C(O)C[C@@H](C)[C@@H]2O`, the IC50 came to 900 nM in the assay on HepG2 [3] and 1000 nM in the assay on CCF-STTG1.

As for `COC(=O)[C@]12Oc3c(-c4ccc(O)c5c4O[C@@]4(C(=O)OC)C(=C(O)C[C@@H](C)[C@@H]4O)C5=O)ccc(O)c3C(=O)C1=C(O)C[C@@H](C)[C@@H]2O`, the values for the IC50 in the assay on HepG2 [3] and with CCF-STTG1 were 900 nM and 1000 nM, respectively.

As for `COC(=O)[C@]12Oc3ccc(-c4ccc5c(c4O)C(=O)C4=C(O)C[C@@H](C)[C@H](O)[C@@]4(C(=O)OC)O5)c(O)c3C(=O)C1=C(O)C[C@@H](C)[C@@H]2O` [SECALONIC ACID A], the inhibition in assay [1] was 100%; in assay [4], “Dose-dependent effect”; in assay [6], 100%. In addition, the values for the IC50 with HepG2 [3] and with CCF-STTG1 were 900 nM and 1000 nM, respectively.

For `Cc1cc2c(c(O)c1C(=O)O)C(=O)c1c(O)cc(O)cc1C2=O`, the result with HepG2 [5] was inactive.

For `COC(=O)[C@@]1(C(O)C(C)CC(=O)O)CC(=O)c2c(ccc(-c3ccc4c(c3O)C(=O)C3(O)C(O)C[C@@H](C)[C@H](O)[C@@]3(C(=O)O)O4)c2O)O1` (stereo partly specified), the inhibition result in assay [1] and in assay [4] was “inactive” each time. In addition, the IC50 in the assay with CCF-STTG1 turned out to be 7500 nM.
